Results as given in patent US10300000B2, “Inhibition of melanogenesis by chemically modified curcumins” (The Research Foundation for The State University of New York, priority 2016, dated 2019).

Key:
[1] = test system: αMSH-stimulated B16F10 cells; assay: Melanin content in αMSH-stimulated B16F10 cells; format: cell-based, mouse
Protocol: (§1) B16F10 cells were seeded at 1×10^5 cells/well in 12-well plates and incubated for 24 hours. The test compounds were then added in presence or absence of αMSH (100 nM), and further incubated for another 48 hours. For evaluation of melanin content, cells were trypsinized, washed in PBS and then 250 μL of 1N NaOH was added and heated to 70° C. to solubilize melanin. The aliquots were then transferred to a 96-well plate and absorbance was read at 475 nm using microplate reader. The absorbance of melanin was normalized by total protein contents and reported as % of control.

[2] = test system: intracellular ROS in B16F10 cells; assay: Intracellular ROS assay (H2DCFDA) in B16F10 cells; format: cell-based, mouse; conditions: B16F10, 25 μM, 48 hours
Protocol: Intracellular ROS generation was quantified using 2′,7′-dichlorodihydrofluorescein diacetate (H2DCFDA), a non-fluorescent dye which is trapped intracellularly by cleavage by intracellular esterases after reaction with reactive oxygen species (ROS); only the product, DCF, is fluorescent. For measuring intracellular ROS, B16F10 cells were seeded in 24 well plates at 4×10^4 cells/well. After 24 hours, media was aspirated and PC, THC and CMCs were added to the wells at different concentrations and further incubated for 48 hours. At the end of the incubations, the media was aspirated and cells were washed with PBS. DCFDA (Molecular Probes) was dissolved in DMSO to make 10 mM stock. DCFDA dye working stock (50 μM) was prepared by diluting the stock in DMEM (serum-free, phenol-red free and sodium pyruvate free) media and added to cells and further incubated for 45 minutes at 37° C. The cells were then washed with DPBS and fluorescence was read in bottom read mode, using a fluorescence microplate reader (Gemini EM Spectramax, Molecular Devices) set to excitation and emission wavelengths of 485 nm and 535 nm, respectively. Data was expressed as relative fluorescence % of treated vs. control.

[3] = test system: αMSH-stimulated B16F10 cells; assay: Melanin content in αMSH-stimulated B16F10 cells; format: cell-based, mouse; parameters: unit of the concentration uncertain; conditions: 48 hours
Protocol: as §1

[4] = test system: B16F10 mouse melanoma cells; format: cell-based; conditions: B16F10, 5 μM, 48 hours, MTS
Protocol: In order to test the four CMCs (CMC2.14, CMC2.24, CMC2.5 and CMC2.23) alongside PC and THC, for their effects on melanin content, we first screened their nontoxic concentrations using MTS cytotoxicity (Promega CellTiter Aqueous One) assay. MTS is a tetrazolium salt which is reduced to purple colored formazan upon reaction with mitochondrial dehydrogenases. Briefly, B16F10 cells were seeded at 4×10^3 cells/well in 96-well plates for 24 hrs. […] Controls were treated with 0.16% DMSO. At the end of 48 hours, medium was aspirated and replaced by 100 μl of fresh media. MTS (20 μl) was added and incubated for 40 minutes and absorbance read at 490 nm using a Versamax® microplate reader. Cell viability was calculated from the absorbance values relative to control groups and expressed in %.

COc1cc(/C=C/C(=O)C(C(=O)/C=C/c2ccc(O)c(OC)c2)C(=O)Nc2ccccc2)ccc1O [CMC2.23]
lightening of cell pellets [1]: visible lightening

COC(=O)C(C(=O)C=Cc1ccc(O)c(OC)c1)C(=O)C=Cc1ccc(O)c(OC)c1 (centres unmarked) [CMC2.5, 4-methoxycarbonyl curcumin]
reduction of intracellular ROS [2]: 23% | reduction of melanin ([3]; αMSH-stimulated B16F10, 20 (unit uncertain) as printed): 36% | reduction of melanin ([3]; αMSH-stimulated B16F10, 25 (unit uncertain) as printed): 42%

COC(=O)C(C(=O)/C=C/c1ccc(O)cc1)C(=O)/C=C/c1ccc(O)cc1 [CMC2.14]
increase of cell proliferation [4]: 26.2%
